Experimental data as given in US20090221559A1 (priority 2005, published 2009).
Like-named read-outs stand apart in the source and are kept apart here.

What was measured:
[1] = test system: HCV replicon RNA replication in Huh-7 luc/neo (Huh-Luc) cells; test: HCV replicon assay (stable replicon cell reporter assay, luciferase read-out); assay type: cell-based, HCV type 1b
Protocol: (§1) The compounds of formula (I) were tested for anti-HCV activity in an assay determining their activity against NS5b polymerase and in an HCV replicon assay
The compounds of the present invention were examined for activity in the inhibition of HCV RNA replication in a cellular assay. […] The cellular assay was based on a bicistronic expression construct, as described by Lohmann et al. (1999) Science vol. 285 pp. 110-113 with modifications described by Krieger et al. (2001) Journal of Virology 75: 4614-4624, in a multi-target screening strategy. In essence, the method was as follows.
The assay utilized the stably transfected cell line Huh-7 luc/neo (hereafter referred to as Huh-Luc). This cell line harbored an RNA encoding a bicistronic expression construct comprising the wild type NS3-NS5B regions of HCV type 1b translated from an Internal Ribosome Entry Site (IRES) from encephalomyocarditis virus (EMCV), preceded by a reporter portion (FfL-luciferase), and a selectable marker portion (neo^R, neomycine phosphotransferase). The construct was bordered by 5′ and 3′ NTRs (non-translated regions) from HCV type 1b. Continued culture of the replicon cells in the presence of G418 (neo^R) was dependent on the replication of the HCV RNA. The stably transfected replicon cells that expressed HCV RNA, which replicated autonomously and to high levels, encoding inter alia luciferase, were used for screening the antiviral compounds.
The replicon cells were plated in 384 well plates in the presence of the test and control compounds which were added in various concentrations. Following an incubation of three days, HCV replication was measured by assaying luciferase activity (using standard luciferase assay substrates and reagents and a Perkin Elmer ViewLux™ ultraHTS microplate imager). […] The inhibitory activity of the compound on luciferase activity was monitored on the Huh-Luc cells, enabling a dose-response curve for each test compound.

[2] = target: T1, HCV NS5B polymerase (His-tagged, C-terminal 21 amino acid deleted NS5B, HC-J4) (Hepatitis C virus genotype 1b, UniProt O92972); test: NS5b polymerase assay (biochemical RdRp assay, 3H-GTP incorporation, SPA beads); design: species or system HCV genotype 1b
T1 construct: The cDNA encoding NS5B amino acid 1-570 (HC-J4, genotype 1b); His tag (His6, from pET-21b) (C); made in house; host or cells: E. coli BL21 (DE3)
Protocol: as §1
The cDNA encoding NS5B amino acid 1-570 (HC-J4, genotype 1b, pCV-J4L6S, genebank accession number AF054247) was subcloned into the Nhe I and Xho I restriction sites of pET-21b. Expression of the subsequent His-tagged C-terminal 21 amino acid deleted NS5B was performed as follows:
Following transformation in BL21 (DE3) competent cells, bacterial cells were grown in 22 liter LB/Amp media until to reach OD600=0.4-0.6. Protein expression was induced by addition of IPTG 0.4 mM, supplemented with 10 μM MgCl2, and incubated for 14-16 hrs at 20° C. Cells were harvested, resuspended in lysis buffer (20 mM Tris-HCl pH=7.5, 0.3 M NaCl, 10% glycerol, 0.1% NP40, 4 mM MgCl2, 14 mM beta-mercaptoethanol, with tablet of EDTA-free protease cocktail inhibitors) and lysed by sonification. The cell lysate was cleared by high-speed centrifugation (20K×g for 30 min), captured on Ni-NTA beads for 70 min at 4° C., and eluted with 25 mM Hepes pH 7.5, 0.5 M NaCl, 10% glycerol, 14 mM BME, 500 mM imidazole. The eluent was dialysed against 25 mM Hepes pH 7.5, 10% glycerol, 50 mM NaCl, 14 mM BME, after which the protein was further purified by heparin chromatography using the same buffer with 1 M NaCl for elution. Fractions containing pure protein were collected, dialyzed against storage buffer 25 mM Hepes pH=7.5, 300 mM NaCl, 10% glycerol, 14 mM BME), and flash-freezed in liquid nitrogen.
Measurement of HCV NS5B polymerization activity was performed by evaluating the amount of radiolabeled GTP incorporated by the enzyme in a newly synthesized RNA using heteropolymeric RNA template/primer. The highthroughput RdRp assay was carried out in 384-well plates using 200 nM enzyme, 0.1 μCi of ^3H GTP, 5 mM MgCl2, 600 nM GTP, 30 nM PolyC, 300 nM 5′-biotinylated oligo(rG13)/poly(rC) in 20 mM Tris pH 7.5, 21 mM KCl, 2.5 mM DTT, 16.7 mM NaCl and 0.17 mM EDTA. Test compounds were dissolved in dimethylsulfoxide. The test compounds were added to the preformed polymerase-template complex, and incubated at room temperature (RT) for 15 min before the addition of NTPs. The 30-μl reaction was terminated after 2 h at 25° C. upon addition of 30-μl PVT-SPA beads (Amersham Biosciences RPNQ0009, 5 mg/ml in 0.5 M EDTA).

[3] = Hepatitis C virus, Huh-7, 72 h, read-out: Replicon Assay EC50, Huh-Luc cells, three days incubation, luciferase activity
[4] = NS5B Polymerase Assay IC50, 200 nM enzyme, 3H-GTP incorporation, 2 h at 25° C.
[5] = Hepatitis C virus, Huh-7, 72 h, read-out: Replicon Assay EC50 (μM), Huh-Luc cells, incubation of three days, luciferase activity
[6] = NS5B Polymerase Assay IC50 (μM)
[7] = Huh-Luc cells, three days incubation, luciferase activity, read-out: Replicon Assay EC50
[8] = 200 nM enzyme, 3H-GTP incorporation, 2 h at 25° C., read-out: NS5B Polymerase Assay IC50

T1 sequence (O92972 2417-3000, looked up, stated change not applied): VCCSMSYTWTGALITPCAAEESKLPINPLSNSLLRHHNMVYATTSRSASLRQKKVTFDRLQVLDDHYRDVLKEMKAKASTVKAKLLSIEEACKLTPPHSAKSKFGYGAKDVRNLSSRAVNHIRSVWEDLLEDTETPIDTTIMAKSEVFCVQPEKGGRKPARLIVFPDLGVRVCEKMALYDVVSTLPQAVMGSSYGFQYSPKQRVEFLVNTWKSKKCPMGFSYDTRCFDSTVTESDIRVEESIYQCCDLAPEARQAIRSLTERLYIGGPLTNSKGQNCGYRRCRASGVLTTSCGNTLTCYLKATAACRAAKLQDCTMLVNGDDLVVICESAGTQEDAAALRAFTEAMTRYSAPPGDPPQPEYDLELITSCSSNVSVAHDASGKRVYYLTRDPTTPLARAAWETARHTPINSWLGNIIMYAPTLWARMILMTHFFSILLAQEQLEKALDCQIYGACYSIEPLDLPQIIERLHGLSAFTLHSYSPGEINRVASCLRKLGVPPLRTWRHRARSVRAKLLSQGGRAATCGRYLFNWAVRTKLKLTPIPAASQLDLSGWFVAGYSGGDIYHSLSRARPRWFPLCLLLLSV

Structure (SMILES) | EC50 [1, 3] [µM] | IC50 [2, 4] [µM] | further results
CC(=O)N1c2cc(F)c(F)cc2NC2=C(C(=O)CC(C)(C)C2)C1c1ccc(Cl)cc1Cl (stereo not drawn) [compound 310, 10-acetyl-7,8-difluoro-11-(2,4-dichlorophenyl)-3,3-dimethyl-2,3,4,5,10,11-hexahydro-1H-dibenzo[b,e][1,4]diazepin-1-one] | 16.4 | 14.5 | –
O=C1CC(c2ccc(Cl)cc2)CC2=C1C(c1ccc(Cl)c(Cl)c1)Nc1ccccc1N2 (stereo not drawn) [compound 355] | – | – | EC50 [1, 5]: 5.48 µM; IC50 [2, 6]: > 42.7 µM
CCCCC(=O)N1c2ccccc2NC2=C(C(=O)CC(C)(C)C2)C1c1ccc(F)cc1 (stereo not drawn) [compound 10] | 19.5 | > 33.3 | –
CC(=O)N1c2ccccc2NC2=C(C(=O)CC(C)(C)C2)C1c1ccc(OCc2ccccc2)cc1OCc1ccccc1 (stereo not drawn) [compound 144, 10-acetyl-11-[2,4-dibenzyloxyphenyl]-3,3-dimethyl-2,3,4,5,10,11-hexahydro-1H-dibenzo[b,e][1,4]diazepin-1-one] | 3.1 | 23 | –
CC(=O)N1c2ccccc2NC2=C(C(=O)CC(C)(C)C2)C1c1cccc([N+](=O)[O-])c1 (stereo not drawn) [compound 103] | > 32 | > 42.7 | –
CC1(C)CC(=O)C2=C(C1)Nc1ccccc1N(C(=O)Cc1ccccc1)C2c1cccc(O)c1 (stereo not drawn) [compound 39] | 7.42 | > 42.7 | –
CC1(C)CC(=O)C2=C(C1)Nc1ccccc1N(C(=O)C(F)(F)F)C2c1cccc([N+](=O)[O-])c1 (stereo not drawn) [compound 47] | 16.4 | > 42.7 | –
CSc1ccc(C2Nc3ccccc3NC3=C2C(=O)CC(c2ccccc2)C3)cc1 (stereo not drawn) [compound 362] | – | – | EC50 [1, 5]: 19.3 µM; IC50 [2, 6]: 30.6 µM
CCOc1cc(C2C3=C(CC(C)(C)CC3=O)Nc3ccccc3N2C(=O)c2ccccc2)ccc1O (stereo not drawn) [compound 64] | 22.9 | > 42.7 | –
O=C1CC(c2ccc(Cl)cc2)CC2=C1C(c1ccccc1Cl)Nc1ccccc1N2 (stereo not drawn) [compound 340] | – | – | EC50 [1, 5]: 5.09 µM; IC50 [2, 6]: > 42.7 µM
CC1(C)CC(=O)C2=C(C1)Nc1ccccc1N(CC(=O)O)C2c1ccc(Cl)cc1Cl (stereo not drawn) [compound 511] | – | – | EC50 [1, 5]: > 100 µM; IC50 [2, 6]: 1.9 µM
COc1ccc(C2C3=C(CC(c4cccc([N+](=O)[O-])c4)CC3=O)Nc3ccccc3N2C(C)=O)cc1OC (mixture of isomers) [compound 180] | – | – | EC50 [1, 7]: 11.8 µM; IC50 [2, 8]: > 42.7 µM
CC1(C)CC(=O)C2=C(C1)Nc1ccccc1N(C(=O)c1ccccc1)C2c1ccccc1F (stereo not drawn) [compound 94] | 3.4 | > 42.7 | –
CC1(C)CC(=O)C2=C(C1)Nc1ccccc1N(C(=O)c1ccccc1)C2c1ccc(F)cc1 (stereo not drawn) [compound 77] | 21.2 | > 42.7 | –
O=C1CC(c2cccc([N+](=O)[O-])c2)CC2=C1C(c1ccco1)N(C(=O)C(F)(F)F)c1ccccc1N2 (stereo not drawn) [compound 296] | 18.3 | > 42.7 | –
CC(=O)N1c2ccccc2NC2=C(C(=O)CC(C)(C)C2)C1CC1CC=C(C)C1(C)C (stereo not drawn) [compound 246] | 1.88 | > 42.7 | –
CC(C)C(=O)N1c2ccccc2NC2=C(C(=O)CC(C)(C)C2)C1c1ccc(Br)s1 (stereo not drawn) [compound 262] | 5.54 | > 42.7 | –
O=C1CC(c2ccccc2)CC2=C1C(c1ccccc1C(F)(F)F)Nc1ccccc1N2 (stereo not drawn) [compound 407] | – | – | EC50 [1, 5]: 15.6 µM; IC50 [2, 6]: > 33.3 µM

Structure (SMILES) | EC50 [1, 3] [µM] | IC50 [2, 4] [µM] | further results
COc1ccc(C2C3=C(CC(c4ccc(C)cc4)CC3=O)Nc3ccccc3N2C(=O)C(F)(F)F)cc1 (mixture of isomers) [compound 194] | – | – | EC50 [1, 7]: 5.22 µM; IC50 [2, 8]: > 33.3 µM
CC(C)C(=O)N1c2ccccc2NC2=C(C(=O)CC(C)(C)C2)C1c1ccc(C(F)(F)F)cc1 (stereo not drawn) [compound 5] | 19.9 | > 42.7 | –
O=C1C[C@@H](c2ccccc2)CC2=C1[C@H](c1cc3c(cc1Br)OCO3)Nc1ccccc1N2 [compound 481] | – | – | EC50 [1, 5]: 1.61 µM; IC50 [2, 6]: > 42.7 µM
CCC(=O)N1c2ccc(C(=O)c3ccccc3)cc2NC2=C(C(=O)CC(C)(C)C2)C1c1ccco1 (stereo not drawn) [compound 261] | – | – | EC50 [1, 7]: 9.3 µM; IC50 [2, 8]: > 42.7 µM
CC1(C)CC(=O)C2=C(C1)Nc1ccccc1NC2c1cc(Cl)c(OCc2ccccc2)c(Cl)c1 (stereo not drawn) [compound 444, 11-[4-benzyloxy-3,5-dichlorophenyl]-3,3-dimethyl-2,3,4,5,10,11-hexahydro-1H-dibenzo[b,e][1,4]diazepin-1-one] | – | – | EC50 [1, 5]: 4.45 µM; IC50 [2, 6]: 33.2 µM
CC(=O)N1c2ccccc2NC2=C(C(=O)CC(C)(C)C2)C1c1cccc(Oc2ccccc2)c1 (stereo not drawn) [compound 135] | 2.47 | 54.7 | –
CCOc1ccccc1C1CC(=O)C2=C(C1)Nc1ccccc1N(C(=O)CC)C2c1ccc(OC)cc1 (stereo not drawn) [compound 219] | – | – | EC50 [1, 7]: 2.26 µM; IC50 [2, 8]: > 42.7 µM
CC1(C)CC(=O)C2=C(C1)Nc1ccccc1N(C(=O)C(F)(F)F)C2c1ccc(-c2ccc(Br)cc2)o1 (stereo not drawn) [compound 278] | 13.3 | > 42.7 | –
COc1cccc(C2Nc3ccccc3NC3=C2C(=O)CC(c2ccccc2)C3)c1 (stereo not drawn) [compound 330] | – | – | EC50 [1, 5]: 23.2 µM; IC50 [2, 6]: > 42.7 µM
CCC(=O)N1c2ccccc2NC2=C(C(=O)CC(C)(C)C2)C1c1ccc(F)cc1 (stereo not drawn) [compound 49] | 11.2 | > 42.7 | –
CC(=O)N1c2ccccc2NC2=C(C(=O)CC(C)(C)C2)C1c1ccc(OCc2ccccc2Cl)cc1 (stereo not drawn) [compound 148, 10-acetyl-11-[4-(2-chlorobenzyloxy)phenyl]-3,3-dimethyl-2,3,4,5,10,11-hexahydro-1H-dibenzo[b,e][1,4]diazepin-1-one] | 3.23 | 83.7 | –
COc1ccc(C2CC(=O)C3=C(C2)Nc2ccccc2N(C(=O)c2ccccc2)C3c2ccc(C)cc2)cc1 (mixture of isomers) [compound 206] | – | – | EC50 [1, 7]: 10.9 µM; IC50 [2, 8]: > 33.3 µM
COc1cccc(C2Nc3ccccc3NC3=C2C(=O)CC(c2ccccc2)C3)c1OC (stereo not drawn) [compound 347] | – | – | EC50 [1, 5]: 20.7 µM; IC50 [2, 6]: > 42.7 µM
CC(C)CC(=O)N1c2ccccc2NC2=C(C(=O)CC(C)(C)C2)C1c1ccc2c(c1)OCO2 (stereo not drawn) [compound 242] | 1.77 | > 42.7 | –
CC(C)C(=O)N1c2ccccc2NC2=C(C(=O)CC(C)(C)C2)C1c1cccs1 (stereo not drawn) [compound 243] | 25.5 | > 33.3 | –
CCCCOc1cccc2c1NC1=C(C(=O)CC(C)(C)C1)C(c1ccc(Cl)cc1Cl)N2C(C)=O (stereo not drawn) [compound 317] | 5.75 | > 133 | –
COc1ccc(C2CC(=O)C3=C(C2)Nc2ccccc2N(C(C)=O)C3c2ccco2)cc1 (stereo not drawn) [compound 298] | – | – | EC50 [1, 7]: > 32 µM; IC50 [2, 8]: > 42.7 µM
CC1(C)CC(=O)C2=C(C1)Nc1ccccc1N(C(=O)c1ccccc1)C2c1cccs1 (stereo not drawn) [compound 269] | 19.6 | > 33.3 | –
